Some test systems named below: SK-MEL-5 melanoma; UACC-62 melanoma; HOP-62 NSCLC; SF-295 CNS; NCI/ADR-RES ovarian; DU-145 prostate; SN12C renal; KM12 colon; M14 melanoma; RXF 393 renal; NCI-H226 lung; LOX IMVI melanoma; MCF7 breast; MOLT-4 leukemia; NCI-H522 lung; HCC-2998 colon; U251 CNS; HCT-116 colon; SK-OV-3 ovarian; A549 NSCLC; T-47D breast; PC-3 prostate; HOP-92 NSCLC; NCI-H23 lung; IGROV1 ovarian; SNB-75 CNS; K-562 leukemia; 786-0 renal; OVCAR-8 ovarian; HCT-15 colon; MDA-MB-468 breast; BT-549 breast; SR leukemia; UACC-257 melanoma; OVCAR-5 ovarian; MDA-MB-231 breast; HL-60(TB) leukemia; OVCAR-3 ovarian; TK-10 renal; COLO 205 colon; SNB-19 CNS; SK-MEL-2 melanoma; SF-539 CNS; A498 renal; SK-MEL-28 melanoma.

What all share (assay): inhibition of tumour cell growth, NCI panel, 48 h

Each structure is given as a SMILES string.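 Compound exposure: 48 hours, 5 concentrations, 96-well plates. At the GI50, growth is halved. Definition used: TGI = concentration required for complete inhibition of growth.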

`Nc1nn2c(-c3cc4cc(Br)ccc4oc3=O)ccnc2c1N=Nc1ccc(Br)cc1`: the GI50 was 3.25 µM in the assay with SK-MEL-5 melanoma; 3.24 µM in the assay with UACC-62 melanoma; 1.99 µM in the assay on HOP-62 NSCLC; 1.86 µM in the assay on SF-295 CNS; 2.22 µM in the assay on NCI/ADR-RES ovarian; 3.24 µM with DU-145 prostate. Besides, the GI50 was 1.94 µM in the assay on SN12C renal; 3.76 µM with KM12 colon; 3.06 µM in the assay on M14 melanoma; 2.25 µM in the assay on RXF 393 renal; 1.96 µM in the assay with NCI-H226 lung; 2.09 µM in the assay with LOX IMVI melanoma. In addition, the GI50 with MCF7 breast is 2.89 µM; in the assay with MOLT-4 leukemia, greater than 100 µM; in the assay with NCI-H522 lung, 2.2 µM; in the assay with HCC-2998 colon it was 3.74 µM; in the assay on U251 CNS, 2.14 µM; with HCT-116 colon, 1.75 µM. Besides, the GI50 with SK-OV-3 ovarian is 2.62 µM; in the assay with A549 NSCLC it was 2.42 µM; in the assay on T-47D breast, 2.29 µM; in the assay on PC-3 prostate it was 1.99 µM; in the assay on HOP-92 NSCLC, 2 µM; in the assay with NCI-H23 lung it was 2.06 µM. Further, the GI50 in the assay with IGROV1 ovarian was 2.72 µM; in the assay on SNB-75 CNS it was 1.81 µM; with K-562 leukemia, 3.28 µM; with 786-0 renal, 1.76 µM; in the assay on OVCAR-8 ovarian, 2.81 µM; with HCT-15 colon, 2.58 µM. For the same compound, the GI50 in the assay on MDA-MB-468 breast was 2.04 µM; in the assay with BT-549 breast, 2.94 µM; with SR leukemia, 5.12 µM; in the assay on UACC-257 melanoma, 3.06 µM; in the assay on OVCAR-5 ovarian it was 2.11 µM; in the assay on MDA-MB-231 breast, 1.73 µM. Moreover, the GI50 in the assay with HL-60(TB) leukemia is greater than 100 µM; in the assay with OVCAR-3 ovarian it was 2.33 µM; in the assay with TK-10 renal, 2.34 µM; with COLO 205 colon, 3.34 µM; in the assay on SNB-19 CNS it was 2.84 µM; in the assay with SK-MEL-2 melanoma it was 3.68 µM. For the same compound, the GI50 was 1.73 µM with SF-539 CNS, 1.81 µM with A498 renal and 2.18 µM in the assay with SK-MEL-28 melanoma. The TGI in the assay on SK-MEL-5 melanoma was greater than 100 µM; in the assay on UACC-62 melanoma, greater than 100 µM; in the assay on HOP-62 NSCLC it was 4.16 µM; in the assay on SF-295 CNS, 4.01 µM; in the assay on NCI/ADR-RES ovarian it was 5.01 µM; with DU-145 prostate, greater than 100 µM. For the same compound, the TGI in the assay on SN12C renal was 3.87 µM; in the assay with KM12 colon it was greater than 100 µM; with M14 melanoma it was greater than 100 µM; in the assay on RXF 393 renal, 5.37 µM; in the assay on NCI-H226 lung it was 4.58 µM; with LOX IMVI melanoma, 4.46 µM. Also, the TGI in the assay with MCF7 breast was 10.1 µM; with MOLT-4 leukemia, greater than 100 µM; in the assay on NCI-H522 lung, 6.55 µM; with HCC-2998 colon, greater than 100 µM; with U251 CNS it was 5.25 µM; in the assay with HCT-116 colon it was 3.44 µM. The TGI with SK-OV-3 ovarian is 6.61 µM; in the assay on A549 NSCLC, 6.86 µM; in the assay on T-47D breast, 6.8 µM; in the assay with PC-3 prostate it was 5.09 µM; in the assay with HOP-92 NSCLC, 4.61 µM; in the assay with NCI-H23 lung, 4.4 µM. Moreover, the TGI with IGROV1 ovarian was 8.76 µM; in the assay with SNB-75 CNS, 4.62 µM; in the assay with K-562 leukemia, greater than 100 µM; in the assay on 786-0 renal, 3.35 µM; in the assay with OVCAR-8 ovarian, 9.79 µM; in the assay with HCT-15 colon, 8.23 µM. The TGI was 5.47 µM in the assay with MDA-MB-468 breast; 8.72 µM with BT-549 breast; greater than 100 µM in the assay with SR leukemia; greater than 100 µM with UACC-257 melanoma; 5.21 µM with OVCAR-5 ovarian; 3.4 µM with MDA-MB-231 breast. Moreover, the TGI in the assay on HL-60(TB) leukemia was greater than 100 µM; in the assay with OVCAR-3 ovarian, 6.37 µM; with TK-10 renal, 5.08 µM; with COLO 205 colon it was greater than 100 µM; with SNB-19 CNS it was 10.9 µM; with SK-MEL-2 melanoma, 17.1 µM. The TGI in the assay on SF-539 CNS was 3.13 µM; in the assay on A498 renal, 3.92 µM; in the assay with SK-MEL-28 melanoma, 4.93 µM.

As to `COc1cc(C(=O)Nc2cc(OC)c3ccn(C)c3c2)cc2c1C[C@]1(C)CC[C@@H](O)C(C)(C)[C@H]1O2`, in the assay on MDA-MB-468 breast, the GI50 is 0.488 µM and the TGI came to 3.01 µM.

For the compound `CCCCCCCCn1ccc2cc(NC(=O)Cn3cc(CN4CCCCC4)nn3)ccc21`, in the assay on MDA-MB-468 breast, the GI50 is 1.67 µM and the TGI worked out at 3.73 µM.

As for `CCOc1cccc(-c2nc(N)nc(Nc3ccccc3SSc3ccccc3Nc3nc(N)nc(-c4cccc(OCC)c4)n3)n2)c1`, in the assay with MDA-MB-468 breast, the GI50 is 24.2 µM and the TGI was greater than 100 µM.

As to `Clc1ccc(-c2cc(-c3ccccc3)nc(NCCNc3ccnc4cc(Cl)ccc34)n2)cc1`, in the assay with MDA-MB-468 breast, the GI50 was 1.48 µM and the TGI stood at 3.15 µM.

`CCOC(=O)C(=O)/C(=C/N1C(=O)CC(=O)NC1=S)C(=O)OCC`: in the assay on MDA-MB-468 breast, the GI50 is greater than 100 µM and the TGI is greater than 100 µM.

Turning to `O=C(/C=C/c1csc(Br)n1)NO`, in the assay on MDA-MB-468 breast, the GI50 is 2.9 µM and the TGI is 21.5 µM.

On to `CN(C)c1ccc(/C=C/C2=[N+](C)c3ccccc3C2(C)C)cc1`, for which, in the assay on MDA-MB-468 breast, the GI50 was 0.555 µM and the TGI was determined as 6.19 µM.

Turning to `Cn1cc(C2=C(c3cn(C)c4ccccc34)C(=O)NC2=O)c2ccccc21`, in the assay on MDA-MB-468 breast, the GI50 is 0.65 µM and the TGI is greater than 25 µM.

Consider `O=C1c2cccc(NCCN=Cc3ccccc3O)c2C(=O)c2c(NCCN=Cc3ccccc3O)cccc21`, for which the TGI with MDA-MB-468 breast was found to be 0.191 µM.

On to `N#C[Se]CCCNS(=O)(=O)C1CC2C=CC1C2` (stereo unspecified), for which, in the assay with MDA-MB-468 breast, the GI50 is 1.29 µM and the TGI worked out at 4.16 µM.

For `COc1cc2c(cc1Nc1nc(Nc3cccc(F)c3C(N)=O)c3cc[nH]c3n1)N(C(=O)CN1CCN(C(C)C)CC1)CC2`, in the assay on MDA-MB-468 breast, the GI50 was 2.22 µM and the TGI amounted to 5.73 µM.

On to `COc1ccc(/C=C2\C=C(c3ccccc3)N(CCc3ccccc3)C2=O)cc1OC`, for which, in the assay on MDA-MB-468 breast, the GI50 was 7.57 µM and the TGI turned out to be 42.4 µM.

For `CC1=C2C(=C[C@@](C)(COS(C)(=O)=O)[C@@H]2O)C(=O)[C@](C)(O)C12CC2`, in the assay on MDA-MB-468 breast, the GI50 was 0.201 µM and the TGI amounted to 0.519 µM.

For the compound `CN1CCN(Cc2ccc(NC(=O)c3cccc(C#Cc4cnc(N)c5ncccc45)c3F)cc2C(F)(F)F)CC1`, in the assay on MDA-MB-468 breast, the GI50 is 6.2 µM and the TGI was determined as 16 µM.

For `NC(N)=N/N=C/c1ccc(-c2ccc(-c3cc(Cl)cc(Cl)c3)s2)cc1`, in the assay on MDA-MB-468 breast, the GI50 is 1.83 µM and the TGI stood at 3.81 µM.

With `Cc1ccc(Cl)c(Nc2ccccc2C(=O)O)c1Cl`, in the assay on MDA-MB-468 breast, the GI50 is 25.9 µM and the TGI came out at 67.2 µM.

Source of the values: PubChem BioAssay (NCI).
